According to PMC7822874, “Chemoprotective antimalarials identified through quantitative high-throughput screening of Plasmodium blood and liver stage parasites” (Scientific Reports, 2021):
Where two headings read alike, the source gives them in different places.

What was measured:
[1] = system: P. berghei-ANKA-GFP-LucCON liver stage parasites in HepG2-A16-CD81EGFP cells; test: P. berghei liver stage Pb-Luc assay, Method 1 (UCSD, 1536-well); type: cell-based, Plasmodium berghei; details: for activity at 1 µM / activity at 3 µM: Plasmodium berghei, 48 h, average of 2 wells on a 1536 well plate; for activity at 1 µM: 1 uM (compounds provided at 10 mM); for activity at 3 µM: 3 uM (compounds provided at 10 mM)
[2] = in vitro; details: human, hepg2 cells
[3] = system: Plasmodium falciparum Dd2 asexual blood stage parasites; test: microbe, parasite or virus in culture; design: species or system Plasmodium falciparum Dd2 in human erythrocytes; single determination (one 11-point concentration-response curve); details: Plasmodium falciparum, DD2, Erythrocyte, 72 h; read-out: AC50
[4] = in vitro; details: human
[5] = system: HepG2; details: human, hepg2 cells, 48 h
[6] = column 11, read-out: Pb-Luc (P. berghei liver stage), % of control, lower concentration, first repeat
[7] = column 12, read-out: Pb-Luc (P. berghei liver stage), % of control, lower concentration, second repeat
[8] = column 8, read-out: Pb-Luc (P. berghei liver stage), % of control, higher concentration, first repeat
[9] = column 9, read-out: Pb-Luc (P. berghei liver stage), % of control, higher concentration, second repeat
[10] = HepG2-A16-CD81EGFP cells, uninfected

Row | SMILES | activity at 1 µM [1, 6] | activity at 1 µM [1, 7] | activity at 3 µM [1, 8] | activity at 3 µM [1, 9] | CC50 at 48 h [2] | AC50 [3] | viability at 48 h, 1 µM [4, 10] | viability at 48 h, 3 µM [4, 10] | Log AC50 (M) [5] | Max Resp (signal direction of the dose response) ([1]; Method 1, Decrease = decreasing P. berghei viability with dose, Increase = increasing signal, Inactive = no dose response) | viability at 48 h [4, 10] | viability at 66 h [4] | viability at 66 h [4, 10]
1 | Cc1cc(Cl)c(S(=O)(=O)N2CCN(c3ccccn3)CC2)cc1OCC(=O)NC1CCCCC1 [MLS000693481-01] | 102% | 96% | 68% | 80% | 27.3 µM | 0.668 µM | 91% | 105% | -4.5643 M | – | – | – | –
2 | CC(Sc1nc2ccccc2c(=O)n1C)C(=O)Nc1ccc2c(c1)OCCO2 (stereo not drawn) [MLS002161477-01] | – | – | – | – | 43.2 µM | – | 84% | – | -4.3643 M | Inactive | 84% | – | –
3 | CCN1CC=C(c2c[nH]c3ccccc23)CC1 [MLS000093713-01] | – | – | – | – | 24.3 µM | 4.22 µM | – | – | -4.6143 M | – | – | 103% | –
4 | CCN1CCN(Cc2ccc(NC(=O)c3ccc(C)c(NC(=O)c4cnc5cc(C(F)(F)F)ccc5c4O)c3)cc2C(F)(F)F)CC1 [MLS000911561-01] | – | – | – | – | 34.3 µM | 0.531 µM | 107% | 104% | -4.4643 M | – | – | – | –
5 | CN(C)CC(CCC(CN(C)C)C(O)(c1ccccc1)c1ccccc1)C(O)(c1ccccc1)c1ccccc1 (stereo not drawn) [MLS001173677-01] | – | – | – | – | 34.3 µM | 2.11 µM | 101% | 98% | -4.4643 M | – | – | – | –
6 | O=C1NC(=S)S/C1=C\C=C\c1ccc([N+](=O)[O-])o1 [MLS000722913-01] | 80% | 77% | 57% | 67% | 13.7 µM | 5.31 µM | 112% | 101% | -4.8643 M | – | – | – | –
7 | Cc1cccc(Oc2nc(-c3ccccn3)nc3ccccc23)c1 [MLS000769548-01] | – | – | – | – | 12.2 µM | 7.5 µM | 106% | – | -4.9143 M | – | 106% | – | –
8 | CCc1ccc([S+](=O)([O-])c2nnn3c2nc(Nc2ccc(F)cc2)c2cc(Cl)ccc23)cc1 [NCGC00112284-01] | – | – | – | – | 34.3 µM | 2.11 µM | – | – | -4.4643 M | – | – | – | 105%
9 | CN1CCC(NCCC(c2ccc(F)cc2)c2ccc(Cl)cc2)CC1 (stereo not drawn) [MLS001215866-01] | – | – | – | – | 34.3 µM | 4.22 µM | – | – | -4.4643 M | – | – | – | 98.6%
10 | CCNc1nc(NC(C)(C)C)nc(N2CCCC2)n1 [MLS000528993-01] | – | – | – | – | 43.2 µM | 2.37 µM | – | – | -4.3643 M | – | – | – | 99.9%
11 | O=C(Nc1nc(-c2ccccn2)cs1)Nc1ccc(F)cc1F [MLS001175659-01] | – | – | – | – | 17.2 µM | 5.31 µM | 94% | 79% | -4.7643 M | – | – | – | –
12 | Cc1cc(N)c2cc(NC(=O)/C=C/c3ccccc3Cl)ccc2n1 [MLS000737665-01] | 86% | 67% | 21% | 37% | 43.2 µM | 1.88 µM | 105% | 108% | -4.3643 M | – | – | – | –
13 | COc1ccc(C2c3ccc4ccccc4c3Oc3ncn(CCCN(C)C)c(=N)c32)cc1 (stereo not drawn) [MLS001216280-01] | – | – | – | – | 34.3 µM | 2.99 µM | 109% | 103% | -4.4643 M | – | – | – | –
14 | c1ccc(-[n+]2nc(Nc3cccc4ccccc34)sc2-c2c3ccccc3cc3ccccc23)cc1 [MLS000949879-01] | – | – | – | – | 43.2 µM | 5.96 µM | – | – | -4.3643 M | – | – | – | 95.1%
15 | CC1(C)N=C(N)N=C(N)N1c1ccc(OCCCOc2ccccc2)c(Cl)c1 [MLS000738223-01] | – | – | – | – | 7.69 µM | 2.99 µM | 39% | 32% | -5.1143 M | – | – | – | –
16 | CC(C)CN(Cc1cc(=O)oc2cc(-c3ccccc3)c(O)cc12)CC(C)C [MLS000779012-01] | 87% | 88% | 59% | 60% | 43.2 µM | – | 98% | 101% | -4.3643 M | – | – | – | –
